Source: patent US9745276B2, “Crystal modifications of elobixibat” (Elobix AB, priority 2013, dated 2017)

How the values were obtained:
Format in all cases: physicochemical
[1] = Thermal gravimetric analysis (TGA) of water/solvent content; settings: heated at 10° C./min from 25° C., dry nitrogen purge
Method: Approximately 1-5 mg of sample was added to a tared Platinum cup which was then placed in the weighting position of a Perkin-Elmer Pyris 1 TGA analyzer. The furnace was raised and the starting weight of the sample was recorded. The heating program was then started. The sample was heated at a rate of 10° C./min, starting at 25° C. and ending at 90-300° C., depending on where a constant temperature could be attained. The sample was purged with dry nitrogen gas during analysis.
A sample of crystal modification IV was analyzed with XRPD and the water content was checked with TGA. The weight loss for crystal modification IV was initially slow, but accelerated at about 50° C. and was finalized at about 80° C. A weight loss of 2.7% w/w was observed.
A sample of crystal modification I was analyzed with XRPD and the water content was checked with TGA. […] A weight loss of 0.99% w/w was observed.
The solvent content of a sample of EtOH-1 was analyzed with TGA.

[2] = Dynamic Vapor Sorption (DVS) analysis; settings: after drying with dry nitrogen, two sorption-desorption cycles, 0 to 10% RH
Method: Approximately 15-20 mg of the sample was weighed into a quartz receptacle, which was then released of static electricity by exposing it to a radioactive source. The quartz receptacle was then positioned in a Surface Measurements System Ltd DVS Advantage instrument. The sample was dried with dry nitrogen gas until a dm/dt below 0.002% per minute was reached. The instrument was running in dm/dt-mode using a dm/dt window of 5 minutes, a minimum stage time of 10 minutes and a maximum stage time of 360 minutes. The sample was then subjected to two consecutive sorption-desorption cycles, using d/m/dt-mode parameters above, and each cycle running from 0-95-0% relative humidity (% RH). One cycle consisted of 20 steps, those between 0-90% RH were taken in 10% RH each.
A sample of crystal modification IV was weighed into the quartz scale pan of a Scientific Instruments Dynamic Vapor Sorption instrument. The sample was released of static electricity by moving a radioactive isotope over it and was then put into the instrument. The sample was dried by flushing dry nitrogen gas until the weight was constant and then two consecutive sorption-desorption cycles were run. Crystal modification IV absorbs approximately 2.45% water between 0 and 10% RH, and an additional 0.36 to 0.37% water between 10 and 60% RH. […]

[3] = Storage stability of the crystal modification (XRPD)
Method: Dry samples were lightly ground in an agate mortar, if needed, and were then smeared out on a sample holder. Slurry samples were added to the sample holder as wet and were analyzed both wet and dry. XRPD data were collected on a cut Silicon Zero Background Holder (ZBH) or on a Porous Alumina Filter Sample Holder, using a PANalytical X'Pert Pro diffractometer, equipped with an X'celerator or a PIXcel detector. The sample was spun during analysis and Cu-radiation was used. The following experimental settings were used:
A batch of crystal modification IV was stored in a closed glass vial and kept at 20° C. and between 20 and 60% RH for 17 months.

[4] = Relative thermodynamic stability of crystal modifications; settings: normal conditions (21° C., 10-30% relative humidity)

SMILES	TGA weight loss [1]	water absorbed between 0 and 10% RH [2]	crystalline form by XRPD after storage ([3]; closed glass vial, 20° C., between 20 and 60% RH, 17 months)	time of storage for which found stable ([3]; such as under ambient, open conditions) [months]	thermodynamic stability compared with crystal modification I and other crystal modifications of elobixibat [4]
CCCCC1(CCCC)CN(c2ccccc2)c2cc(SC)c(OCC(=O)N[C@@H](C(=O)NCC(=O)O)c3ccccc3)cc2S(=O)(=O)C1 [EtOH-1, N-{(2R)-2-[({[3,3-dibutyl-7-(methyl-thio)-1,1-dioxido-5-phenyl-2,3,4,5-tetrahydro-1,5-benzothiazepin-8-yl]oxy}acetyl)amino]-2-phenylethanolyl}glycine]	approximately 6 % w/w	–	–	–	–
CCCCC1(CCCC)CN(c2ccccc2)c2cc(SC)c(OCC(=O)N[C@@H](C(=O)NCC(=O)O)c3ccccc3)cc2S(=O)(=O)C1 [crystal modification I, N-{(2R)-2-[({[3,3-dibutyl-7-(methyl-thio)-1,1-dioxido-5-phenyl-2,3,4,5-tetrahydro-1,5-benzothiazepin-8-yl]oxy}acetyl)amino]-2-phenylethanolyl}glycine]	0.99 % w/w	approximately 0.66%	–	–	–
CCCCC1(CCCC)CN(c2ccccc2)c2cc(SC)c(OCC(=O)N[C@@H](C(=O)NCC(=O)O)c3ccccc3)cc2S(=O)(=O)C1 [crystal modification IV, N-{(2R)-2-[({[3,3-dibutyl-7-(methyl-thio)-1,1-dioxido-5-phenyl-2,3,4,5-tetrahydro-1,5-benzothiazepin-8-yl]oxy}acetyl)amino]-2-phenylethanolyl}glycine]	2.7 % w/w	approximately 2.45%	unchanged	≥ 17	more thermodynamically stable
